Measured values as given in US20230192650A1, “NOVEL ACID SECRETION INHIBITOR AND USE THEREOF” (Ildong Pharmaceutical Co., Ltd., priority 2020, published 2023).
Like-named read-outs stand apart in the source and are kept apart here.

Experiments:
[1] = Pharmacokinetic test in beagle dogs; format: in vivo; details: blood, beagle dog; for bioavailability: oral 10 mg/kg vs intravenous 5 mg/kg, read-out: F (%) bioavailability; for AUC(0-inf): single oral dose 10 mg/kg
Method: (§1) The Example compound was dissolved in PBS containing 5% DMSO and 20% hydroxypropyl (HP) beta cyclodextrin, and administered intravenously to rats at a dose of 5 mg/kg, and the Example compound was suspended in distilled water containing 0.5% methylcellulose, and orally administered to rats at a dose of 10 mg/kg. The Example compound was dissolved in PBS containing 5% DMSO and 20% hydroxypropyl (HP) beta cyclodextrin, and administered intravenously to beagle dogs at a dose of 5 mg/kg, and the Example compound was suspended in distilled water containing 0.5% methylcellulose, and orally administered to beagle dogs at a dose of 10 mg/kg. Blood samples were collected at scheduled time points after the single intravenous and oral administration of the Example compound to normal rats and beagle dogs. Acetonitrile containing an internal standard material was added to the collected blood sample for protein precipitation. The sample extracted through protein precipitation was centrifuged, and then the supernatant was injected into LC-MS/MS to be subjected to quantitative analysis of the blood concentration of the Example compound. The AUC for each administration route was calculated based on the blood concentration-time profile obtained as a result above, and based on this, the bioavailability (F) upon oral administration was calculated.

[2] = molecular target: T1, proton pump (H+/K+-ATPase) (Sus scrofa, UniProt P19156); assay: Reversibility of proton pump inhibition by jump dilution method; format: biochemical, pig; details: 0.2 μM compound
T1 construct: Gastric vesicles isolated from pig stomach were prepared according to the document; from tissue; host or cells: pig stomach (gastric vesicles)
T1 sequence (P19156 2-1034 limits assumed): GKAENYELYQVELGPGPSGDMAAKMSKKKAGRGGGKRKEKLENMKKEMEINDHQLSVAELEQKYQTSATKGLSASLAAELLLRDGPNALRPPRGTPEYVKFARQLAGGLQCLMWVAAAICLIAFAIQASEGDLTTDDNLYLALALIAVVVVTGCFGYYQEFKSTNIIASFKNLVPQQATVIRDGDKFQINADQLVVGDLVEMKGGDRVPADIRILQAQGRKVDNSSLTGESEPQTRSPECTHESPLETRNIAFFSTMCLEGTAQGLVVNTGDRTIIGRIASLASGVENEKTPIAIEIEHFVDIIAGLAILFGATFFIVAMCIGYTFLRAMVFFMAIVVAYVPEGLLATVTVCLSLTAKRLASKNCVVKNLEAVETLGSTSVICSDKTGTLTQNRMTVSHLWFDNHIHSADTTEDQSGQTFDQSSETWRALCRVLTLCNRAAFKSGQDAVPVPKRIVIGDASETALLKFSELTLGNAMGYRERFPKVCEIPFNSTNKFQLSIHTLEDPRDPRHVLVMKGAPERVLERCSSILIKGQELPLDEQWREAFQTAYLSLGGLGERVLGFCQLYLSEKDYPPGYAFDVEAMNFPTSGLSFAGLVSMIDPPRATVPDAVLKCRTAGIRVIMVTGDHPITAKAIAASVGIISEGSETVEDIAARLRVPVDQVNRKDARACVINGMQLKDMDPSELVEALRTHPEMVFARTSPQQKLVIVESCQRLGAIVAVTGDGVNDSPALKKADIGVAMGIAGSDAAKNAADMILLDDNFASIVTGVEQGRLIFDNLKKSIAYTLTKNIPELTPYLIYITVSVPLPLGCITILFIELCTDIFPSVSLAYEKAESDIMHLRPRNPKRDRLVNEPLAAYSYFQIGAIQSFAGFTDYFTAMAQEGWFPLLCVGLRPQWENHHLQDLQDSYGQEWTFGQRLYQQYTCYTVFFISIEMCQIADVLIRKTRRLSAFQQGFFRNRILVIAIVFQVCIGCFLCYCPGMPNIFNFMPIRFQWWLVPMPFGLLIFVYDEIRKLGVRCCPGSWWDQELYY
T1 sequence (P18434 whole entry partner): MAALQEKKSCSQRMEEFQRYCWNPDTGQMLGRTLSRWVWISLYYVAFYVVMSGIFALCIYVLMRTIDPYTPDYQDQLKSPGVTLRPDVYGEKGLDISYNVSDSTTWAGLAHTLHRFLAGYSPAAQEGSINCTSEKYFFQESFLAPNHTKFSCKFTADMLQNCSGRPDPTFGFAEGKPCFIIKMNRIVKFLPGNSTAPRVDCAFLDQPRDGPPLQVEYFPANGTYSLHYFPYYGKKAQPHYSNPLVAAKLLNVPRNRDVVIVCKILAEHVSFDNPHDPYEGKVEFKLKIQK
Method: In addition, in order to confirm the reversibility of the inhibition ability on the proton pump (H^+/K^+-ATPase) of the prepared compound, an experiment was performed by the jump dilution method. 6.25 μg of gastric vesicles isolated from pig stomach and 0.2 μM of each compound were pre-incubated for 120 minutes, and then the enzyme activity before dilution and the enzyme activity after 50-fold dilution were compared for each reaction time, and the reversibility was evaluated. In both Example 1 and Example 3, the inhibition ability of 50% or more was confirmed after 20 minutes of the reaction. On the other hand, when the reaction was performed for 60 minutes after the 50-fold dilution, in both Examples 1 and 3, the enzyme activity was recovered to 90% or more, and reversible results were confirmed.

[3] = molecular target: T1, proton pump (H+/K+-ATPase); assay: Inhibitory activity on proton pump (H+/K+-ATPase), malachite green assay; format: biochemical; details: pig gastric vesicles, pH 6.5
Method: (§2) The proton pump (H+/K+-ATPase) inhibitory activity of the prepared compound was measured as follows. Gastric vesicles isolated from pig stomach were prepared according to the document (see Methods Mol Biol. 2016; 1377:19-27). The protein contents of the gastric vesicles were quantified with a Bicinchoninic Acid (BCA) kit (Sigma Aldrich, BCA1). To each well of a 96-well plate, 70 μl of 50 mM Tris-HEPES buffer (pH 6.5) containing 125 ng of vesicles, DMSO or a substance for each concentration (final DMSO concentration of 1%), 5 mM MgCl2, and 10 mM KCl was added and pre-incubated at 37° C. for 30 minutes. Then, 10 μl of 2 mM ATP was added to each well, followed by enzymatic reaction at 37° C. for 40 minutes. The reaction was stopped by adding 20 μl of malachite green reagent (Sigma Aldrich, MAK307) and the resulting mixture was allowed to stand at room temperature for 30 minutes. By measuring the absorbance at 620 nm using a Microplate Reader (Biotek, Synergy H4), an amount of inorganic phosphorus released from ATP degradation was measured and the enzyme activity was measured. The absorbance of the enzyme-reacted sample without adding KCl was measured, and the measurement value was subtracted from all the above measurements. Assuming that the group treated with 1% DMSO (DMSO control group) was 100% H^+/K^+-ATPase enzyme activity, and that the group without KCl (KCl control group) was 0% H^+/K^+-ATPase enzyme activity, % inhibition was calculated as in the following Equation 1:
% inhibition=[1−(ODtreatment group−ODKCl control group)/(ODDMSO control group−ODKCl control group))]*100. [Equation 1]
IC50 was obtained by nonlinear regression analysis of GraphPad Prism7 program using % inhibition values for each concentration, and results thereof are shown in Table 2 below.

[4] = Pharmacokinetic test in rats; format: in vivo; details: blood, rat; for bioavailability: oral 10 mg/kg vs intravenous 5 mg/kg, read-out: F (%) bioavailability; for AUC(0-inf): single oral dose 10 mg/kg
Method: as §1

[5] = molecular target: T1, proton pump (H+/K+-ATPase); assay: Proton pump (H+/K+-ATPase) inhibitory activity depending on pH; format: biochemical, pig
Method: as §2, with “1: […]” for “1:”
In order to measure the change in proton pump (H+/K+-ATPase) inhibitory activity depending on the pH of the prepared compound, an experiment was performed in the same manner as in Test Example 1 under three conditions of pH 6.5, pH 7.0, and pH 7.5.

[6] = Intragastric distribution test in rats; format: in vivo; details: rat, oral 4 mg/kg, 1, 6, 12 and 24 hours
Method: After oral administration of the Example compound in normal rats, the intragastric distribution by time was measured as follows. The prepared compound was dissolved in distilled water containing 0.5% methylcellulose to 0.2 mg/mL, and then orally administered at a dosage of 4 mg/kg. Rats were sacrificed at 1 hour, 6 hours, 12 hours, and 24 hours after administration. Then, blood was exsanguinated through the heart and perfused with physiological saline, the gastric tissue was enucleated, weighed, and stored at −80° C. until the point of analysis. PBS buffer was added so that the ratio of gastric tissue weight to PBS buffer was 1:4, and the compound in gastric tissue was extracted using a homogenizer. The supernatant of the extract was taken and was subjected to protein precipitation using acetonitrile, and then an amount of the Example compound was measured using LC-MS/MS.

[7] = tested on: indomethacin-induced gastric damage; assay: Gastric damage inhibitory efficacy in rat of indomethacin-induced gastric damage; format: in vivo; details: SD rats, 10 mg/kg oral 1 hour before indomethacin, 5 hours
Method: The experiment was performed as follows to evaluate the gastric ulcer inhibitory efficacy of the Example compound in rat models of gastric damage induced by indomethacin, a drug in the NSAID classes.
Among fasted male Sprague Dawley rats, the control group was orally administered with 0.5% methylcellulose solution, and the other groups were orally administered with the Example compound at a dose of 10 mg/10 mL/kg suspended in 0.5% methylcellulose solution.
In 1 hour after oral administration of the Example compound, indomethacin was orally administered, and after 5 hours, the test animals were sacrificed and the stomach was enucleated. After washing the enucleated surface of the stomach, the greater curvature of the stomach was incised. The incised stomach was spread out and fixed. Then, the ratio of the gastric damaged area was obtained by the total gastric area and the damaged area on the gastric mucosa surface using ImageJ software (NIH, Bethesda), and the % inhibitory activity of the Example compound was calculated according to the following Equation 3.
% inhibitory activity of Example compound=[(ratio of gastric damaged area in control group−ratio of gastric damaged area in group treated with Example compound)/(ratio of gastric damaged area in control group)]×100 [Equation 3]

[8] = tested on: basal gastric acid secretion; assay: Inhibition of basal gastric acid secretion in pylorus-ligated rat (Shay's rat model); format: in vivo; details: SD rats, 10 mg/kg oral 1 h before pylorus ligation, 5 hours after ligation
Method: The inhibitory efficacy of the prepared compound on basal gastric acid secretion was measured by employing the Shay's rat model [Shay H, et al., Gastroenterology, 1945, 5, 43˜61].
Male Sprague Dawley (SD) rats were divided into 8 rats per group, and fasted with only water supply for 24 hours. Then, one hour before pylorus ligation, the control group was orally administered with 0.5% methylcellulose solution, and the other groups were orally administered with the Example compound at a dose of 10 mg/10 mL/kg suspended in 0.5% methylcellulose solution.
After 5 hours of ligation, the rats were sacrificed under Zoletil and Xylazine anesthesia, and the gastric contents were enucleated by incision of the abdominal cavity. The obtained contents were centrifuged at 3,000 rpm for 10 minutes to separate only the supernatant, and gastric juice was collected. 1 mL of the collected gastric juice was taken into a beaker and the pH was measured using an electrode pH meter. To 1 mL of gastric juice, 0.03 mL each of 0.5% dimethylaminoazobenzene alcohol solution and 1% phenolphthalein alcohol solution was added to make red color, and then 0.1N NaOH solution was added, wherein the volume until the rose tint appeared was determined as the total acidity, and the total acid output was obtained by multiplying the acidity of gastric juice by the amount of gastric juice. The % inhibitory activity of the Example compound was calculated according to the following Equation 2, and results thereof are shown in Table 6 below.
% inhibitory activity of Example compound=[(total gastric acid secretion in Control group−total gastric acid secretion in group treated with Example compound)/total gastric acid secretion in Control group]×100 [Equation 2]

human SSTR4 = human SSTR4 (Homo sapiens, UniProt P31391); assay: SSTR4 agonist effect (cell-based cAMP functional assay, HTRF); details: CHO cells stably expressing human SSTR4, 37° C. 30 minutes, vs sst-14 10 nM
Chain of human SSTR4 (P31391 whole entry): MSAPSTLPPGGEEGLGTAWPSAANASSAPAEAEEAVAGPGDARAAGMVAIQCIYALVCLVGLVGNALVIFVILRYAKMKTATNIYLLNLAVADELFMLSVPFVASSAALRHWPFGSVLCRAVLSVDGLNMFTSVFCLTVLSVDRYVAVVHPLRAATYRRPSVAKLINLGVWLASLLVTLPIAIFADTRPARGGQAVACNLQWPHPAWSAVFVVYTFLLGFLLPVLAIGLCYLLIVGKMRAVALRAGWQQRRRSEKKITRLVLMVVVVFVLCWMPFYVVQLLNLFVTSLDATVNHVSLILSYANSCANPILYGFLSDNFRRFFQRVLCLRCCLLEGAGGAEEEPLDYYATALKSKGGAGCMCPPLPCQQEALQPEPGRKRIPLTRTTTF
Method: The agonism effect on SSTR4 was confirmed by cell-based cAMP functional assay. CHO cells in which human SSTR4 was stably expressed were treated with test substances for each concentration and reacted at 37° C. for 30 minutes, and an amount of the produced cAMP was measured by the HTRF detection method. The % response compared to the reference control agonist (sst-14, 10 nM) was calculated, and the EC50 was calculated through the concentration-response curve.

[9] = after 20 minutes of the reaction, read-out: inhibition ability
[10] = reaction time 20 min, after 50-fold dilution, read-out: % Inhibition
[11] = reaction time 20 min, before dilution, read-out: % Inhibition
[12] = reaction time 60 min, after 50-fold dilution, read-out: % Inhibition
[13] = reaction time 60 min, before dilution, read-out: % Inhibition
[14] = reaction time 120 min, after 50-fold dilution, read-out: % Inhibition
[15] = reaction time 120 min, before dilution, read-out: % Inhibition

bioavailability [1] [%] | AUC(0-inf) [1] [ng·h/mL] | inhibition at 0.2 µM [2, 9] [%] | inhibition at 0.2 µM [2, 10] [%] | inhibition at 0.2 µM [2, 11] [%] | inhibition at 0.2 µM [2, 12] [%] | inhibition at 0.2 µM [2, 13] [%] | inhibition at 0.2 µM [2, 14] [%] | inhibition at 0.2 µM [2, 15] [%] | IC50 [3] [nM] | bioavailability [4] [%] | AUC(0-inf) [4] [ng·h/mL] | IC50 ([5]; pH 6.5) [nM] | IC50 ([5]; pH 7.0) [nM] | IC50 ([5]; pH 7.5) [nM] | EC50 (human SSTR4) [nM] | SMILES | Inhibitory Activity (%) on ratio of gastric damaged area [7] | Inhibitory Activity (%) on total gastric acid secretion [8] | pH of gastric juice [8] | other results
71.7 | 10200 | ≥ 50 | 20 to 50 | ≥ 50 | < 20 | ≥ 50 | < 20 | ≥ 50 | ≤ 300 | 22 | 253 | ≤ 100 | ≤ 100 | 100 to 1000 | 780 | CNCc1cn(S(=O)(=O)c2ccc(OC)nc2)c(-c2ccccc2F)c1OC [Example 1, 1-(5-(2-Fluorophenyl)-4-methoxy-1-((6-methoxypyridin-3-yl)sulfonyl)-1H-pyrrol-3-yl)-N-methylmethanamine] | +++ (97% or more: +++) | +++ (90% or more: +++) | 8.25 ± 0.16 | concentration in the stomach versus in vitro H+/K+ ATPase IC50 [6]: exceeded ICH of the in vitro H^+/K^+ ATPase inhibition assay at all time points
– | – | – | – | – | – | – | – | – | ≤ 300 | – | – | – | – | – | – | CNCc1cn(S(=O)(=O)c2ccc(C)nc2)c(-c2ccccc2F)c1OC [Example 4, 1-(5-(2-Fluorophenyl)-4-methoxy-1-((6-methylpyridin-3-yl)sulfonyl)-1H-pyrrol-3-yl)-N-methylmethanamine] | – | – | – | –
83.8 | 14500 | ≥ 50 | 20 to 50 | ≥ 50 | < 20 | ≥ 50 | < 20 | ≥ 50 | ≤ 300 | 27.3 | 275 | ≤ 100 | 100 to 1000 | 100 to 1000 | 3900 | CNCc1cn(S(=O)(=O)c2ccc(C)nc2)c(-c2ccc(F)cc2F)c1OC [Example 3, 1-(5-(2,4-Difluorophenyl)-4-methoxy-1-((6-methylpyridin-3-yl)sulfonyl)-1H-pyrrol-3-yl)-N-methylmethanamine] | +++ (97% or more: +++) | +++ (90% or more: +++) | 8.08 ± 0.24 | inhibition ability depending on pH ([5]; pH 6.5, pH 7.0, pH 7.5 compared): higher inhibition ability in a weakly acidic condition compared to a neutral condition
– | – | – | – | – | – | – | – | – | ≤ 300 | – | – | – | – | – | – | CNCc1cn(S(=O)(=O)c2ccc(OC)nc2)c(-c2ccc(F)cc2F)c1OC [Example 2, 1-(5-(2,4-Difluorophenyl)-4-methoxy-1-((6-methoxypyridin-3-yl)sulfonyl)-1H-pyrrol-3-yl)-N-methylmethanamine] | – | +++ (90% or more: +++) | 8.04 ± 0.16 | –
